Active and inactive are the calls of the source. The rule behind the calls is not given here.
What was measured:
[1] = test system: BXPC-3; test: Antiproliferative activity against human BxPC-3 cells assessed as reduction in colony formation up to 20 uM supplemented with fresh medium containing compound every 3 days for 9 days by MTT staining based clonogenic assay; type: functional, cell-based; details: time 9.0 day
[2] = test system: MIA PaCa-2; test: Antiproliferative activity against human MIA PaCa-2 cells assessed as reduction in colony formation up to 20 uM supplemented with fresh medium containing compound every 3 days for 9 days by MTT staining based clonogenic assay; type: functional, cell-based; details: time 9.0 day
[3] = test system: NCI-H460; test: Antiproliferative activity against human NCI-H460 cells assessed as reduction in colony formation up to 20 uM supplemented with fresh medium containing compound every 3 days for 9 days by MTT staining based clonogenic assay; type: functional, cell-based; details: time 9.0 day
[4] = test system: Kasumi 1; test: Cytotoxicity against human Kasumi 1 cells measured after 8 days; type: functional, cell-based; details: Kasumi 1, 192 h
[5] = test system: Pfeiffer; test: Cytotoxicity against human Pfeiffer cells measured after 8 days; type: functional, cell-based; details: 192 h
[6] = test system: HMV-2 cell line; test: Antiproliferative activity against human HMV-2 cell line assessed as reduction in colony formation up to 20 uM supplemented with fresh medium containing compound every 3 days for 9 days by MTT staining based clonogenic assay; type: functional; details: time 9.0 day
[7] = test system: PC-9; test: Cytotoxicity against human PC-9 cells assessed as reduction in drug tolerant population at 2 uM supplemented with fresh medium containing compound every 3 days for 9 days in presence of erlotinib by Beckman Coulter counting method relative to control; type: functional; design: scale not given: the % may be the effect or the level left; details: time 9 day
[8] = Cytotoxicity against human NCE-G 141 cells measured after 3 days; type: functional, cell-based; details: NCE-G 141, 72 h
[9] = test system: AU565; test: Cytotoxicity against human AU565 cells measured after 3 days; type: functional, cell-based; details: AU565, 72 h
[10] = test system: OAW-42; test: Cytotoxicity against human OAW-42 cells measured after 3 days; type: functional, cell-based; details: OAW-42, 72 h
[11] = Cytotoxicity against human PL-21 cells measured after 3 days; type: functional, cell-based; details: PL-21, 72 h
[12] = test system: OVCAR-4; test: Cytotoxicity against human OVCAR-4 cells measured after 3 days; type: functional, cell-based; details: OVCAR-4, 72 h
[13] = test system: OVCAR-3; test: Cytotoxicity against human OVCAR-3 cells measured after 3 days; type: functional, cell-based; details: OVCAR-3, 72 h
[14] = test system: SK-OV-3; test: Cytotoxicity against human SK-OV-3 cells measured after 3 days; type: functional, cell-based; details: SK-OV-3, 72 h
[15] = test system: Calu-1; test: Cytotoxicity against human Calu-1 cells after 8 days; type: functional, cell-based; details: Calu-1, 192 h
[16] = test system: OCI-AML-3; test: Cytotoxicity against human OCI-AML-3 cells measured after 3 days; type: functional, cell-based; details: OCI-AML-3, 72 h
[17] = test system: NCI-H1734; test: Cytotoxicity against human NCI-H1734 cells measured after 3 days; type: functional, cell-based; details: NCI-H1734, 72 h
[18] = test system: TYK-nu; test: Cytotoxicity against human TYK-nu cells measured after 3 days; type: functional, cell-based; details: 72 h
[19] = test system: 769-P; test: Cytotoxicity against human 769-P cells measured after 3 days; type: functional, cell-based; details: 72 h
[20] = test system: HCC1954; test: Cytotoxicity against human HCC1954 cells measured after 3 days; type: functional, cell-based; details: HCC1954, 72 h
[21] = test system: NCI-H460; test: Cytotoxicity against human NCI-H460 cells measured after 3 days; type: functional, cell-based; details: NCI-H460, 72 h
[22] = Cytotoxicity against human VP229 cells measured after 3 days; type: functional, cell-based; details: VP229, 72 h
[23] = test system: A2780; test: Cytotoxicity against human A2780 cells measured after 3 days; type: functional, cell-based; details: A2780, 72 h
[24] = test system: SW982; test: Cytotoxicity against human SW982 cells measured after 3 days; type: functional, cell-based; details: SW982, 72 h
[25] = Cytotoxicity against human COV413B cells measured after 3 days; type: functional, cell-based; details: 72 h
[26] = test system: HCC95; test: Cytotoxicity against human HCC95 cells measured after 3 days; type: functional, cell-based; details: HCC95, 72 h
[27] = test system: KG-1; test: Cytotoxicity against human KG-1 cells measured after 3 days; type: functional, cell-based; details: KG-1, 72 h
[28] = Cytotoxicity against human HCC1428 cells measured after 8 days; type: functional, cell-based; details: HCC1428, 192 h
[29] = Cytotoxicity against human OV7 cells measured after 3 days; type: functional, cell-based; details: OV7, 72 h
[30] = Cytotoxicity against human HNT-34 cells measured after 3 days; type: functional, cell-based; details: HNT-34, 72 h
[31] = test system: OVCAR-5; test: Cytotoxicity against human OVCAR-5 cells measured after 3 days; type: functional, cell-based; details: OVCAR-5, 72 h
[32] = test system: HCC1395; test: Cytotoxicity against human HCC1395 cells measured after 8 days; type: functional, cell-based; details: HCC1395, 192 h
[33] = Cytotoxicity against human HuH-1 cells measured after 3 days; type: functional, cell-based; details: HuH-1, 72 h
[34] = test system: HMEC; test: Cytotoxicity against HMEC cells measured after 8 days; type: functional, cell-based; details: Homo sapiens, 192 h
[35] = test system: Granta-519; test: Cytotoxicity against human Granta-519 cells measured after 3 days; type: functional, cell-based; details: Granta-519, 72 h
[36] = Cytotoxicity against human NCI-H1568 cells after 8 days; type: functional, cell-based; details: NCI-H1568, 192 h
[37] = test system: SNU-182; test: Cytotoxicity against human SNU-182 cells measured after 3 days; type: functional, cell-based; details: SNU-182, 72 h
[38] = test system: YMB-1-E; test: Cytotoxicity against human YMB-1-E cells measured after 3 days; type: functional, cell-based; details: 72 h
[39] = Cytotoxicity against human JHH7 cells measured after 3 days; type: functional, cell-based; details: JHH7, 72 h
[40] = test system: SNU-475; test: Cytotoxicity against human SNU-475 cells measured after 3 days; type: functional, cell-based; details: SNU-475, 72 h
[41] = test system: NALM-6; test: Cytotoxicity against human NALM-6 cells measured after 3 days; type: functional, cell-based; details: NALM-6, 72 h
[42] = test system: CAL-148; test: Cytotoxicity against human CAL-148 cells measured after 3 days; type: functional, cell-based; details: CAL-148, 72 h
[43] = test system: RMG-I; test: Cytotoxicity against human RMG-I cells measured after 3 days; type: functional, cell-based; details: 72 h
[44] = test system: G-402; test: Cytotoxicity against human G-402 cells measured after 3 days; type: functional, cell-based; details: G-402, 72 h
[45] = test system: DU-4475; test: Cytotoxicity against human DU-4475 cells after 8 days; type: functional, cell-based; details: DU-4475, 192 h
[46] = test system: LN-229; test: Cytotoxicity against human LN-229 cells measured after 3 days; type: functional, cell-based; details: LN-229, 72 h
[47] = Cytotoxicity against human OVTOKO cells measured after 3 days; type: functional, cell-based; details: 72 h
[48] = test system: MCF-10A; test: Cytotoxicity against human MCF-10A cells measured after 3 days; type: functional, cell-based; details: 72 h
[49] = Cytotoxicity against human YMB-1 cells measured after 3 days; type: functional, cell-based; details: YMB-1, 72 h
[50] = Cytotoxicity against human EFM-192C cells measured after 3 days; type: functional, cell-based; details: 72 h
[51] = test system: HCC1395; test: Cytotoxicity against human HCC1395 cells measured after 3 days; type: functional, cell-based; details: HCC1395, 72 h
[52] = test system: L-363; test: Cytotoxicity against human L-363 cells measured after 3 days; type: functional, cell-based; details: L-363, 72 h
[53] = test system: IGROV-1; test: Cytotoxicity against human IGROV-1 cells measured after 3 days; type: functional, cell-based; details: IGROV-1, 72 h
[54] = test system: SNU-449; test: Cytotoxicity against human SNU-449 cells measured after 3 days; type: functional, cell-based; details: SNU-449, 72 h
[55] = Cytotoxicity against human NCE-G 84 cells measured after 3 days; type: functional, cell-based; details: NCE-G 84, 72 h
[56] = Cytotoxicity against human OCI-M2 cells measured after 3 days; type: functional, cell-based; details: OCI-M2, 72 h
[57] = test system: NCI-H929; test: Cytotoxicity against human NCI-H929 cells measured after 3 days; type: functional, cell-based; details: NCI-H929, 72 h

## C/C=C/Cn1cc(-c2ccc(C(C)(C)O)cc2OC)c2cc[nH]c2c1=O
[1]
  Activity: inactive
[2]
  Activity: inactive
[3]
  Activity: inactive
[4]
  IC50: 3.63 µM
[5]
  IC50: 6.95 µM
[6]
  Activity: inactive

## C/C=C/Cn1cc(-c2cc(OC)c(C(=O)N3CCOCC3)cc2OC)c2cc(C)[nH]c2c1=O
[7]
  Activity: >60%
[8]
  IC50: 5 µM
[9]
  IC50: 5 µM
[10]
  IC50: 5 µM
[11]
  IC50: 5 µM
[12]
  IC50: 5 µM
[13]
  IC50: 5 µM
[14]
  IC50: 5 µM
[15]
  IC50: 2 µM
[16]
  IC50: 5 µM
[17]
  IC50: 5 µM
[18]
  IC50: 5 µM
[19]
  IC50: 5 µM
[20]
  IC50: 5 µM
[21]
  IC50: 5 µM
[22]
  IC50: 5 µM
[23]
  IC50: 5 µM
[24]
  IC50: 5 µM
[25]
  IC50: 5 µM
[26]
  IC50: 5 µM
[27]
  IC50: 5 µM
[28]
  IC50: 2 µM
[29]
  IC50: 5 µM
[30]
  IC50: 5 µM
[31]
  IC50: 5 µM
[32]
  IC50: 2 µM
[33]
  IC50: 5 µM
[34]
  IC50: 2 µM
[35]
  IC50: 5 µM
[36]
  IC50: 2 µM
[37]
  IC50: 5 µM
[38]
  IC50: 5 µM
[39]
  IC50: 5 µM
[40]
  IC50: 5 µM
[41]
  IC50: 5 µM
[42]
  IC50: 5 µM
[43]
  IC50: 5 µM
[44]
  IC50: 5 µM
[45]
  IC50: 2 µM
[46]
  IC50: 5 µM
[47]
  IC50: 5 µM
[48]
  IC50: 5 µM
[49]
  IC50: 5 µM
[50]
  IC50: 5 µM
[51]
  IC50: 5 µM
[52]
  IC50: 5 µM
[53]
  IC50: 5 µM
[54]
  IC50: 5 µM
[55]
  IC50: 5 µM
[56]
  IC50: 5 µM
[57]
  IC50: 5 µM

Source: ChEMBL document CHEMBL5260810, “Inhibition of bromodomain-containing protein 9 for the prevention of epigenetically-defined drug resistance” (Bioorg Med Chem Lett, 2017)
